Data published in patent US20160355530A1, “HEPATITIS C INHIBITORS AND USES THEREOF” (AbbVie Inc., priority 2010, published 2016).
Read-outs that look alike come from different tables or passages of the source.

Key:
[1] = biological target: T1, HCV NS5B polymerase 1a-H77-C316Y (Hepatitis C virus genotype 1a, UniProt P27958, C2736Y); experiment: biochemical; set-up: species or system HCV genotype 1a
T1 construct: six-histidine tag; made in house; host or cells: E. coli
Summary of the method: (§1)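 Incorporation of [3H]UTP (0.284 μM), alongside 20 μM each CTP and ATP, into RNA copied from a 5 nM 2.1 kb genotype 1b negative-strand template was measured after 3 h at 30° C using purified His-tagged NS5B truncated at residue 570. Product was spermine-precipitated, filtered and scintillation-counted; nonlinear regression gave IC50.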

[2] = biological target: T2, HCV NS5B polymerase 1a-H77 (Hepatitis C virus genotype 1a, UniProt P27958); experiment: biochemical; set-up: species or system HCV genotype 1a
T2 construct: six-histidine tag; made in house; host or cells: E. coli
Summary of the method: as §1

[3] = tested on: HCV NS5B polymerase 1a-H77-C316Y; experiment: biochemical; set-up: species or system HCV genotype 1a; details: ratio of enzyme IC50s, 1a H77-C316Y / 1a H77
Summary of the method: as §1

[4] = tested on: chimeric replicon with genotype 4a NS5B; experiment: microbe, parasite or virus in culture; type: cell-based, HCV genotype 4a; details: Hepatitis C virus, read-out: 4a chimera 5% FBS EC50
[5] = tested on: HCV 1a-H77-C316Y transient subgenomic replicon in Huh-7 derived cell line; experiment: microbe, parasite or virus in culture; type: cell-based, HCV genotype 1a; details: for EC50: Hepatitis C virus, Huh-7, read-out: Transient Replicon 1a H77-C316Y 5% FBS EC50; for Transient Replicon Fold Resistance C316Y/1a: ratio of transient replicon EC50s, C316Y / 1a H77
Summary of the method: (§2)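 Transient format: T7-transcribed replicon RNA lacking Neo, electroporated into Huh-7-derived cells (5×10^3/well), input RNA checked by luciferase at 4 h. Three-fold compound dilution series, 0.5% DMSO, 4 days at 37° C; EC50 from luciferase signal in lysed cells.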

[6] = tested on: HCV 1a-H77 transient subgenomic replicon in Huh-7 derived cell line; experiment: microbe, parasite or virus in culture; type: cell-based, HCV genotype 1a; details: Hepatitis C virus
Summary of the method: as §2

[7] = tested on: chimeric replicon with genotype 2b NS5B; experiment: microbe, parasite or virus in culture; type: cell-based, HCV genotype 2b; details: Hepatitis C virus, read-out: 2b chimera 5% FBS EC50
[8] = tested on: chimeric replicon with genotype 3a NS5B; experiment: microbe, parasite or virus in culture; type: cell-based, HCV genotype 3a; details: Hepatitis C virus, read-out: 3a chimera 5% FBS EC50
[9] = tested on: HCV 1a-H77 subgenomic replicon; experiment: microbe, parasite or virus in culture; type: cell-based, HCV genotype 1a; details: Hepatitis C virus
[10] = tested on: HCV 1b-BB7 subgenomic replicon; experiment: microbe, parasite or virus in culture; type: cell-based, HCV genotype 1b; details: Hepatitis C virus
[11] = tested on: chimeric replicon with 2a-J6CF-derived NS5B; experiment: microbe, parasite or virus in culture; type: cell-based, HCV genotype 2a; details: Hepatitis C virus, read-out: 2a chimera 5% FBS EC50
[12] = biological target: T3, HCV NS5B polymerase 1b BK strain (Hepatitis C virus genotype 1b, UniProt P26663); experiment: HCV NS5B polymerase enzymatic inhibition assay, strain 1b BK; type: biochemical
T3 construct: six-histidine tag; made in house; host or cells: E. coli
Summary of the method: as §1

[13] = enzyme, strain 1a H77, read-out: HCV Polymerase Strain 1a H77 IC50
[14] = Huh-7, transient replicon, 5% FBS, read-out: Transient Replicon 1a H77 5% FBS EC50
[15] = stable replicon, 5% FBS, absence of human plasma, read-out: Stable Replicon 1a H77 5% FBS EC50
[16] = stable replicon, strain 1a H77, 5% FBS + 40% human plasma, read-out: 1a H77 5% FBS + 40% Human Plasma EC50
[17] = stable replicon, strain 1a H77, 5% FBS, no human plasma, read-out: 1a H77 5% FBS EC50
[18] = stable replicon, strain 1a H77, 5% FBS, read-out: 1a H77 5% FBS EC50
[19] = stable replicon, strain 1b BB7, 5% FBS + 40% human plasma, read-out: 1b BB7 5% FBS + 40% Human Plasma EC50
[20] = stable replicon, strain 1b BB7, 5% FBS, no human plasma, read-out: 1b BB7 5% FBS EC50
[21] = stable replicon, strain 1b BB7, 5% FBS, read-out: 1b BB7 5% FBS EC50
[22] = enzyme, strain 1b BK, read-out: HCV Polymerase Strain 1b BK IC50

T2 sequence (P27958 2421-2990): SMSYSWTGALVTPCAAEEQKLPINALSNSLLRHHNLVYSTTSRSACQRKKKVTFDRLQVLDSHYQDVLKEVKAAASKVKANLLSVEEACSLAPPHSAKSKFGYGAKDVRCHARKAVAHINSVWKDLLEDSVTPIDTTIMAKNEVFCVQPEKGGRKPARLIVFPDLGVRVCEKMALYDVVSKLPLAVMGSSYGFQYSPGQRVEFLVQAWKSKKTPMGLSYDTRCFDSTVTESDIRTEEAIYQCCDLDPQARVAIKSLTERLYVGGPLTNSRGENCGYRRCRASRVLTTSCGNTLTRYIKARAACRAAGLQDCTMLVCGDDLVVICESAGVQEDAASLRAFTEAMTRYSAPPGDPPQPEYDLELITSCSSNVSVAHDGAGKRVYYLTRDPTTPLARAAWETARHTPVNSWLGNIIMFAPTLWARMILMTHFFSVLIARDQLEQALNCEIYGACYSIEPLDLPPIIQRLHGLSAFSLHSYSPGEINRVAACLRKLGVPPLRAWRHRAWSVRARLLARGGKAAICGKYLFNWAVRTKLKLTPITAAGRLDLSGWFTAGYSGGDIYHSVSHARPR
T1 sequence (P27958 2421-2990 C2736Y): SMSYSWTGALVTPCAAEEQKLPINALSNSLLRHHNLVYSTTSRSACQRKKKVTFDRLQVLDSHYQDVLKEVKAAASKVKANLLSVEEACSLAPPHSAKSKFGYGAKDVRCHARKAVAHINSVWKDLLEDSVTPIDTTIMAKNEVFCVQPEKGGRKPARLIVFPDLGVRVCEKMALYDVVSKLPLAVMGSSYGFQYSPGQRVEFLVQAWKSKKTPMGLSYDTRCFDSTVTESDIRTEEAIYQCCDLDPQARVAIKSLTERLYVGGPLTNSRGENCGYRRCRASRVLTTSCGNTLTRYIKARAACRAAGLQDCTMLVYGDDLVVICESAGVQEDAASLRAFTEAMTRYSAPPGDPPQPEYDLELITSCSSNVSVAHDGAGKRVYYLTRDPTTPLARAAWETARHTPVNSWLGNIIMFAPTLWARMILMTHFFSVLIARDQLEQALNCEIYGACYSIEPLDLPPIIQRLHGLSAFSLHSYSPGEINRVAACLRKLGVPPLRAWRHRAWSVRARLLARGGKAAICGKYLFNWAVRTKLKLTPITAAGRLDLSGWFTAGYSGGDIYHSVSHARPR
T3 sequence (P26663 2420-2989): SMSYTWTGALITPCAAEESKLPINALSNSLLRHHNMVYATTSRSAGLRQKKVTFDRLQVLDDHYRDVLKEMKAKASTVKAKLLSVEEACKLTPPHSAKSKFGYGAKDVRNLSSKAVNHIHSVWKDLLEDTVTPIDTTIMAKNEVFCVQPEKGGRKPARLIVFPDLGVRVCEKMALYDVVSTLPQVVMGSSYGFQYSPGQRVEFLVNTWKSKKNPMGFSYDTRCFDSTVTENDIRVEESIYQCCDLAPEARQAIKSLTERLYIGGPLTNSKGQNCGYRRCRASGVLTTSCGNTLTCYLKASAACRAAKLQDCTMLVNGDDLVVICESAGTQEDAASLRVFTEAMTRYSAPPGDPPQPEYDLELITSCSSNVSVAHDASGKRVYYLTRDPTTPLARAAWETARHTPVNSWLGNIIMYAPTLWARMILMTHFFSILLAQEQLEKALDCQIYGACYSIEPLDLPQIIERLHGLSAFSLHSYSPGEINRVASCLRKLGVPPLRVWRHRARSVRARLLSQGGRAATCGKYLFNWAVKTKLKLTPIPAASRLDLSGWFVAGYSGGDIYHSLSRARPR

## CS(=O)(=O)N(CCC1CCS(=O)(=O)C1)c1cc2oc(-c3ccc(F)cc3)c(-c3ncc[nH]3)c2cc1C1CC1 (stereo not shown) [Example 61, N-[5-cyclopropyl-2-(4-fluorophenyl)-3-(1H-imidazol-2-yl)-1-benzofuran-6-yl]-N-[2-(1,1-dioxidotetrahydrothiophen-3-yl)ethyl]methanesulfonamide]
[1]
  IC50: 76 nM
[2]
  IC50: 8.9 nM
[3]
  C316Y/1a Fold Resistance: 9 fold
[4]
  EC50: 18.4 nM
[5]
  EC50: 45.8 nM
  Transient Replicon Fold Resistance C316Y/1a: 13 fold
[6]; Huh-7, read-out: Transient Replicon 1a H77 5% FBS EC50
  EC50: 3.6 nM
[7]
  EC50: 29.9 nM
[8]
  EC50: 6.2 nM
[9]; read-out: 1a H77 5% FBS + 40% Human Plasma EC50
  EC50: 72.2 nM
[9]; read-out: 1a H77 5% FBS EC50
  EC50: 5.4 nM
[9]; read-out: Stable Replicon 1a H77 5% FBS EC50
  EC50: 5.4 nM
[10]; read-out: 1b BB7 5% FBS + 40% Human Plasma EC50
  EC50: 18.4 nM
[10]; read-out: 1b BB7 5% FBS EC50
  EC50: 3 nM
[11]
  EC50: 41 nM
[12]
  IC50: 16 nM

## Cc1ccc(C)n1-c1nc(CCCN(c2cc3oc(-c4ccc(F)cc4)c(-c4ncc[nH]4)c3cc2C2CC2)S(C)(=O)=O)cs1 [Example 62, N-[5-cyclopropyl-2-(4-fluorophenyl)-3-(1H-imidazol-2-yl)-1-benzofuran-6-yl]-N-{3-[2-(2,5-dimethyl-1H-pyrrol-1-yl)-1,3-thiazol-4-yl]propyl}methanesulfonamide]
[1]
  IC50: 250 nM
[2]; [13]
  IC50: 3.9 nM
[3]
  C316Y/1a Fold Resistance: 65 fold
[4]
  EC50: 364 nM
[5]
  EC50: 899 nM
  Transient Replicon Fold Resistance C316Y/1a: 15 fold
[6]; [14]
  EC50: 60.6 nM
[7]
  EC50: 471 nM
[8]
  EC50: 49.9 nM
[9]; [15]
  EC50: 88.7 nM
[9]; [16]
  EC50: 342 nM
[9]; [17]
  EC50: 88.7 nM
[9]; [18]
  EC50: 88.7 nM
[10]; [19]
  EC50: 328 nM
[10]; [20]
  EC50: 71 nM
[10]; [21]
  EC50: 71 nM
[11]
  EC50: 309 nM
[12]; [22]
  IC50: 14 nM

## CS(=O)(=O)N(CC#N)c1cc2oc(-c3ccc(F)cc3)c(-c3ncc[nH]3)c2cc1C1CC1 [Example 63, N-(cyanomethyl)-N-[5-cyclopropyl-2-(4-fluorophenyl)-3-(1H-imidazol-2-yl)-1-benzofuran-6-yl]methanesulfonamide]
[1]
  IC50: 2100 nM
[2]; [13]
  IC50: 4.5 nM
[3]
  C316Y/1a Fold Resistance: 470 fold
[4]
  EC50: 702 nM
[5]
  EC50: 1900 nM
  Transient Replicon Fold Resistance C316Y/1a: 25 fold
[6]; [14]
  EC50: 75.6 nM
[7]
  EC50: 108 nM
[8]
  EC50: 6.8 nM
[9]; [15]
  EC50: 67 nM
[9]; [16]
  EC50: 1160 nM
[9]; [17]
  EC50: 67 nM
[9]; [18]
  EC50: 67 nM
[10]; [19]
  EC50: 195 nM
[10]; [20]
  EC50: 14.4 nM
[10]; [21]
  EC50: 14.4 nM
[11]
  EC50: 131 nM
[12]; [22]
  IC50: 47 nM

## CS(=O)(=O)N(CCCO)c1cc2oc(-c3ccc(F)cc3)c(-c3ncc[nH]3)c2cc1C1CC1 [Example 65, N-[5-cyclopropyl-2-(4-fluorophenyl)-3-(1H-imidazol-2-yl)-1-benzofuran-6-yl]-N-(3-hydroxypropyl)methanesulfonamide]
[1]
  IC50: 166 nM
[2]; [13]
  IC50: 6.9 nM
[3]
  C316Y/1a Fold Resistance: 24 fold
[4]
  EC50: 87.5 nM
[5]
  EC50: 228 nM
  Transient Replicon Fold Resistance C316Y/1a: 42 fold
[6]; [14]
  EC50: 5.4 nM
[7]
  EC50: 68.5 nM
[8]
  EC50: 4 nM
[9]; [15]
  EC50: 10.3 nM
[9]; [16]
  EC50: 121 nM
[9]; [17]
  EC50: 10.3 nM
[9]; [18]
  EC50: 10.3 nM
[10]; [19]
  EC50: 59.5 nM
[10]; [20]
  EC50: 6.8 nM
[10]; [21]
  EC50: 6.8 nM
[11]
  EC50: 42.4 nM
[12]; [22]
  IC50: 52 nM

## CS(=O)(=O)N(CCCS(N)(=O)=O)c1cc2oc(-c3ccc(F)cc3)c(-c3ncc[nH]3)c2cc1C1CC1 [Example 80, 3-{[5-cyclopropyl-2-(4-fluorophenyl)-3-(1H-imidazol-2-yl)-1-benzofuran-6-yl](methylsulfonyl)amino}propane-1-sulfonamide]
[1]
  IC50: 55 nM
[2]; [13]
  IC50: 5 nM
[3]
  C316Y/1a Fold Resistance: 11 fold
[4]
  EC50: 373 nM
[5]
  EC50: 162 nM
  Transient Replicon Fold Resistance C316Y/1a: 20 fold
[6]; [14]
  EC50: 8.3 nM
[7]
  EC50: 283 nM
[8]
  EC50: 12.2 nM
[9]; [15]
  EC50: 12.1 nM
[9]; [16]
  EC50: 52 nM
[9]; [17]
  EC50: 12.1 nM
[9]; [18]
  EC50: 12.1 nM
[10]; [19]
  EC50: 72 nM
[10]; [20]
  EC50: 10.7 nM
[10]; [21]
  EC50: 10.7 nM
[11]
  EC50: 211 nM
[12]; [22]
  IC50: 16 nM

## CS(=O)(=O)N(CCCCF)c1cc2oc(-c3ccc(F)cc3)c(-c3ncc[nH]3)c2cc1C1CC1 [Example 83, N-[5-cyclopropyl-2-(4-fluorophenyl)-3-(1H-imidazol-2-yl)-1-benzofuran-6-yl]-N-(4-fluorobutyl)methanesulfonamide]
[1]
  IC50: 79 nM
[2]; [13]
  IC50: 5.5 nM
[3]
  C316Y/1a Fold Resistance: 14 fold
[4]
  EC50: 67.3 nM
[5]
  EC50: 128 nM
  Transient Replicon Fold Resistance C316Y/1a: 21 fold
[6]; [14]
  EC50: 6 nM
[7]
  EC50: 47.3 nM
[8]
  EC50: 6.1 nM
[9]; [15]
  EC50: 6.9 nM
[9]; [16]
  EC50: 89 nM
[9]; [17]
  EC50: 6.9 nM
[9]; [18]
  EC50: 6.9 nM
[10]; [19]
  EC50: 96 nM
[10]; [20]
  EC50: 8.19 nM
[10]; [21]
  EC50: 8.2 nM
[11]
  EC50: 46.7 nM
[12]; [22]
  IC50: 26 nM

## CC(C)(O)C(O)CCN(c1cc2oc(-c3ccc(F)cc3)c(-c3ncc[nH]3)c2cc1C1CC1)S(C)(=O)=O (stereo not shown) [Example 84, N-[5-cyclopropyl-2-(4-fluorophenyl)-3-(1H-imidazol-2-yl)-1-benzofuran-6-yl]-N-(3,4-dihydroxy-4-methylpentyl)methanesulfonamide]
[1]
  IC50: 41 nM
[2]; [13]
  IC50: 3.5 nM
[3]
  C316Y/1a Fold Resistance: 12 fold
[4]
  EC50: 142 nM
[5]
  EC50: 184 nM
  Transient Replicon Fold Resistance C316Y/1a: 7 fold
[6]; [14]
  EC50: 25.4 nM
[7]
  EC50: 30.9 nM
[8]
  EC50: 15.1 nM
[9]; [15]
  EC50: 14.9 nM
[9]; [16]
  EC50: 218 nM
[9]; [17]
  EC50: 14.9 nM
[9]; [18]
  EC50: 14.9 nM
[10]; [19]
  EC50: 146 nM
[10]; [20]
  EC50: 14.1 nM
[10]; [21]
  EC50: 14.1 nM
[11]
  EC50: 103 nM
[12]; [22]
  IC50: 19 nM

## CNS(=O)(=O)CCCN(c1cc2oc(-c3ccc(F)cc3)c(-c3ncc[nH]3)c2cc1C1CC1)S(C)(=O)=O [Example 86, 3-{[5-cyclopropyl-2-(4-fluorophenyl)-3-(1H-imidazol-2-yl)-1-benzofuran-6-yl](methylsulfonyl)amino}-N-methylpropane-1-sulfonamide]
[1]
  IC50: 56 nM
[2]; [13]
  IC50: 5 nM
[3]
  C316Y/1a Fold Resistance: 11 fold
[4]
  EC50: 108 nM
[5]
  EC50: 92.1 nM
  Transient Replicon Fold Resistance C316Y/1a: 33 fold
[6]; [14]
  EC50: 2.8 nM
[7]
  EC50: 137 nM
[8]
  EC50: 11.5 nM
[9]; [15]
  EC50: 12.3 nM
[9]; [16]
  EC50: 86 nM
[9]; [17]
  EC50: 12.3 nM
[9]; [18]
  EC50: 12.3 nM
[10]; [19]
  EC50: 41 nM
[10]; [20]
  EC50: 6.7 nM
[10]; [21]
  EC50: 6.7 nM
[11]
  EC50: 64.2 nM
[12]; [22]
  IC50: 18 nM
